# Laboratory results as given in ChEMBL document CHEMBL5360542, “Current development of β-carboline derived potential antimalarial scaffolds” (Eur J Med Chem, 2023).
# Legend:
# [1] = tested on: Plasmodium falciparum; assay: Antimalarial activity against artemisinin-resistant Plasmodium falciparum R539T infected in O positive erythrocytes assessed as reduction in parasite growth incubated for 48 hrs by giemsa staining based assay; assay type: functional, organism-based; details: Erythrocyte
# [2] = tested on: Plasmodium falciparum; assay: Antimalarial activity against artemisinin-sensitive parental Plasmodium falciparum 3D7 infected in O positive erythrocytes assessed as reduction in parasite growth incubated for 48 hrs by giemsa staining based assay; assay type: functional, organism-based; details: 3D7, Erythrocyte
# [3] = Cytotoxicity against human dermal fibroblast cultured as 2D cells assessed as inhibition of cell growth incubated for 48 hrs by MTT assay; assay type: toxicity, cell-based; details: human dermal fibroblasts cultured as 2D cells
# [4] = tested on: Plasmodium berghei; assay: (§1) Antiplasmodial activity against Plasmodium berghei NK-65 infected in Swiss albino mouse assessed as mean survival time of mouse at 100 mg/kg, po administered once daily for 4 days followed by artesunate addition at 50 mg/kg for 60 mins and measured 24 hrs post last dose by giemsa staining based analysis; assay type: functional; details: time 5 day
# [5] = tested on: Plasmodium berghei; assay: as §1, with “as reduction” for “as mean survival time”, “of parasitaemia” for “of mouse”, “analysis relative to control” for “analysis”; assay type: functional; parameters: scale not given: the % may be the effect or the level left; details: time 5 day
# [6] = tested on: Plasmodium falciparum; assay: Antimalarial activity against chloroquine-resistant Plasmodium falciparum RKL-9 transfected in A positive human erythrocytes assessed as reduction in schizont maturation incubated for 48 hrs by giemsa stain based assay; assay type: functional, organism-based; details: RKL-9, 48 h
# [7] = tested on: Plasmodium falciparum; assay: Antimalarial activity against chloroquine-sensitive Plasmodium falciparum 3D7 transfected in A positive human erythrocytes assessed as reduction in schizont maturation incubated for 48 hrs by giemsa stain based assay; assay type: functional, organism-based; details: 3D7, 48 h
# [8] = Selectivity index, ratio of IC50 for chloroquine-resistant Plasmodium falciparum RKL-9 transfected in A positive human erythrocytes to IC50 for chloroquine-sensitive Plasmodium falciparum 3D7 transfected in A positive human erythrocytes; assay type: functional
# [9] = tested on: Plasmodium falciparum; assay: Antimalarial activity against chloroquine-sensitive Plasmodium falciparum […] assessed as reduction in parasite growth; assay type: functional, organism-based
# [10] = tested on: Plasmodium falciparum; assay: Antimalarial activity against chloroquine-sensitive Plasmodium falciparum 3D7 by SYBR green assay; assay type: functional, organism-based
# [11] = tested on: Plasmodium falciparum; assay: Antimalarial activity against Plasmodium falciparum NF54 infected in human erythrocytes assessed as reduction in parasitemia incubated for 48 hrs by [3H]-hypoxanthine based liquid scintillation counting analysis; details: NF54, Erythrocyte
smiles,measurement,setting,value
COc1ccc(C2NCCc3c2[nH]c2ccccc32)cc1OC (stereo not drawn),IC50,[1],2.99 µM
same,IC50,[2],3.03 µM
COC(=O)[C@@H]1Cc2c([nH]c3ccccc23)[C@@H](c2ccc3c(c2)OCO3)N1,CC50 at 48 h,[3],> 640 mg/L
same,Survival,[4],25.8 days
same,Activity,[5],99.69%
same,IC50,[6],< 1 mg/L
same,IC50,[7],< 1 mg/L
same,Selectivity Index,[8],>10
O=C(O)CCc1nccc2c1[nH]c1ccccc12,IC50,[9],0.0767 mg/L
O=C(c1c[nH]c2ccc(O)cc12)c1nccc2c1[nH]c1ccc(O[C@@H]3O[C@H](CO)[C@@H](O)[C@H](O)[C@H]3O)cc12,IC50,[10],5 µM
Clc1cc(Cl)c(Cl)c(C2NCCc3c2[nH]c2ccccc32)c1 (stereo not drawn),IC50,[1],4.89 µM
same,IC50,[2],3.43 µM
C[C@H]1Cc2c([nH]c3cc(Cl)c(F)cc23)[C@@]2(N1)C(=O)Nc1ccc(Cl)cc12 [CIPARGAMIN],IC50,[11],0.0005 µM
